From patent US20260376283A1, “A METHOD IMPLEMENTING MORPHOLOGICAL CHANGES OF EXTRACELLULAR ORGANELLE VESICLES SO AS TO EXAMINE THE TRANSPORTING ACTIVITY OF MEMBRANE TRANSPORT PROTEINS AND OTHER RELATED METHODS” (PARIS SCIENCES ET LETTRES, priority 2023, published 2026) come the findings set out here.

What all share (type): biochemical
The test system of assay [1] is ion pump SERCA localized on Endoplasmic Reticulum vesicles. Nature of the assay: Ca2+ pump transporting activity by morphological change (deflation/re-swelling) of ER extracellular organelle vesicles (Example 1). The method, then:
An initial HKM buffer was prepared with 50 mM Hepes (known as 2-[4-(2-hydroxyethyl)piperazin-1-yl]ethanesulfonic acid), 120 mM potassium acetate, and 1 mM MgCl2 (in Milli-Q water) at pH 7.4. Said initial HKM buffer has an osmolarity of 280±15 mOsm/L.
Then, a membrane tension is applied on cells so as to produce extracellular organelle vesicles without lysing them. At that step, the extracellular organelle vesicles are released (or produced) thanks to the lysis and the removal of the plasma membrane. The membrane tension is carried out by micro-manipulation of the cells under confocal microscope thanks to a micropipette aspiration technique. Micropipette radius is around 1 μm. Thanks to a slight aspiration, a bilayer tongue of the plasma membrane was sucked into the micropipette. The aspiration is then increased at an approximate rate of 10 mbar/min, causing a proportional increase in the bilayer surface tension. At a certain applied tension (e.g. surface tension<0.75 mN/m), the plasma membrane ruptured thanks to a pore opening in the plasma membrane and the extracellular organelle vesicles are released (or extracted).
After extraction, one or more extracellular organelle vesicles are isolated using a micropipette. The micropipettes are used to hold a vesicle during the following methods of the present invention. Before the addition of molecules (ions, sugars or drug molecules), an acquisition is launched to observe the initial size of the vesicle.
Once the acquisition is started, the extracellular organelle vesicle, held by the micropipette is passed through an aqueous solution containing CaCl2 (60 mOsm/L) and ATP (100 μM). Contacting calcium ions with said extracellular organelle vesicle increases the osmolarity of the extravesicular aqueous medium. […] This innovative process allows to examine the transporting activity of the ion pump SERCA localized on Endoplasmic Reticulum vesicles.
FIG. 1 A) represents an extracellular organelle vesicle of endoplasmic reticulum (ER) which is maintained thanks to a micropipette into a HKM diluted buffer (20 mOsm/L) as an extravesicular aqueous medium. This extracellular organelle vesicle has been isolated thanks to an ER resident protein (KDEL), over-expressed by COS7 cells, before organelle vesicles extraction.
At t=0s, CaCl2 (60 mOsm/L) and ATP (100 μM) were added. At t=20s, the ER extracellular organelle vesicle is deflated: it reached its minimum volume (Vi1) and its associated maximum fluorescence signal (Fl1).
Once the acquisition is started, the ER extracellular organelle vesicle, held by the micropipette is passed through an aqueous solution containing sucrose (60 mOsm). […] Sucrose can thus be used as a control or reference in the method of the present invention.

The test system of assay [2] is Ca^2+ pump of the Endoplasmic Reticulum. Nature of the assay: Abnormal expression/activity of Ca2+ pump of ER by vesicle morphological change (Example 2). On the procedure: FIG. 3 A) represents an extracellular organelle vesicle of endoplasmic reticulum (ER) which is maintained thanks to a micropipette into a HKM diluted buffer (20 mOsm/L) as an extravesicular aqueous medium. This extracellular organelle vesicle has been isolated thanks to an ER resident protein (KDEL), over-expressed by COS7 cells, before organelle vesicles extraction.
At t=0s, CaCl2 (60 mOsm/L) and ATP (100 μM) were added. At t=20s, the ER extracellular organelle vesicle is deflated: it reached its minimum volume (Vi1) and its associated maximum fluorescence signal (Fi1).

Assay [3] relates to ER extracellular organelle vesicle. Nature of the assay: Ca2+ internalization in ER extracellular organelle vesicle by Fluo8-AM fluorescence (Example 3). The note with it: role: substrate, CaCl2 30 mOsm/L, ATP 100 μM, FIG. 5. On the procedure:
FIG. 5 represents an ER extracellular organelle vesicle which is maintained thanks to a micropipette into a HKM diluted buffer (20 mOsm/L). This extracellular organelle vesicle has been isolated thanks to an ER resident protein (KDEL), over-expressed by COS7 cells, before organelle vesicles extraction. Before organelle extraction, cells were incubated during 1 h with a fluorophore called “Fluo8-AM” to report for calcium volumic concentration in organelles thanks to green fluorescence emission.
At t=0s, CaCl2 (30 mOsm/L) and ATP (100 μM) were added. Fluorescence microscopy snaps are visualized on FIG. 5 and show calcium concentration inside the ER extracellular organelle vesicle during the experiment.

Assay [4] deals with Endoplasmic Reticulum extracellular organelle vesicle (SERCA pump). Nature of the assay: SERCA specificity: ER vesicle response to CaCl2 (Example 5). The note with it: role: substrate, CaCl2 30 mOsm/L, ATP 100 μM, FIG. 7. The method, then: (§1) In this example, an Endoplasmic Reticulum extracellular organelle vesicle and a mitochondria extracellular organelle vesicle are isolated simultaneously with micropipettes, and visualized. ER and mitochondria extracellular organelle vesicles were both put in contact with CaCl2 (30 mOsm/L) and ATP (100 μM) during one hour.
(§2) FIG. 7 represents Endoplasmic Reticulum extracellular organelle vesicle and mitochondria extracellular organelle vesicle are maintained thanks two micropipettes into a HKM diluted buffer (30 mOsm/L). These extracellular organelle vesicles were isolated thanks to ER and mitochondria resident proteins, over-expressed by COS7 cells, before organelle vesicles extraction.
(§3) At t=0s, CaCl2 (30 mOsm/L) and ATP (100 μM) were added. Dotted line circles all correspond to the size of the vesicle before contacting with CaCl2.

For assay [5], the system named is mitochondria extracellular organelle vesicle. Nature of the assay: SERCA specificity: mitochondria vesicle response to CaCl2 (Example 5). The note with it: role: substrate, CaCl2 30 mOsm/L, ATP 100 μM, FIG. 7. On the procedure: as §1, §2, §3
The test system of assay [6] is Endoplasmic Reticulum extracellular organelle vesicle (SERCA pump). Nature of the assay: ER vesicle response to CaCl2 compared with nucleus (Example 6). The note with it: role: substrate, CaCl2 60 mOsm/L / 20 mOsm/L, ATP 100 μM, FIG. 8. The method, then: (§4) In this example, an Endoplasmic Reticulum extracellular organelle vesicle and a nucleus cell component are isolated together from a same cell with one micropipette, and visualized. ER extracellular organelle vesicle and nucleus cell component were both put in contact with CaCl2 (20 mOsm/L) and ATP (100 μM) during 5 minutes.
(§5) FIG. 8 represents Endoplasmic Reticulum extracellular organelle vesicle and nucleus cell component are maintained thanks one micropipette into a HKM diluted buffer (30 mOsm/L). The extracellular organelle vesicle and the nucleus cell component were respectively isolated thanks to ER and nucleus probes, over-expressed by COS7 cells, before organelle vesicle and nucleus extraction.
(§6) At t=0s, CaCl2 (60 mOsm/L) and ATP (100 μM) were added. Dotted line circle corresponds to the size of the endoplasmic reticulum vesicle before contacting with CaCl2.

Assay [7] concerns nucleus cell component (SERCA pump). Nature of the assay: Nucleus cell component response to CaCl2 (Example 6). The note with it: role: substrate, CaCl2 60 mOsm/L / 20 mOsm/L, ATP 100 μM, FIG. 8. On the procedure:
as §4, §5, §6

Assay [8] relates to Endoplasmic Reticulum extracellular organelle vesicle (SERCA over-expressed). Nature of the assay: ER vesicle with over-expressed SERCA, response to CaCl2 (Example 7). The note with it: role: substrate, CaCl2 60 mOsm/L, ATP 100 μM. An excerpt:
(§7) In this example, an Endoplasmic Reticulum extracellular organelle vesicle and a plasma membrane cell component are isolated with micropipettes.
(§8) The SERCA protein is over-expressed in cell 1 on its native organelle, the endoplasmic reticulum. In cell 2, SERCA is relocalized by genetic construction on the plasma membrane cell component. This finally serves to isolate with micropipettes, one endoplasmic reticulum extracellular vesicle with SERCA extracted from cell 1 and one plasma membrane cell component enriched with SERCA deriving from cell 2.
(§9) These extracellular organelle vesicle and plasma membrane cell component were isolated thanks to ER and plasma membrane protein probes, over-expressed by COS7 cells, before organelle vesicle and plasma membrane cell component extraction.
(§10) ER extracellular vesicle and plasma membrane cell component were both put in contact with CaCl2 (60 mOsm/L) and ATP (100 μM) during 5 minutes.
(§11) At t=0s, CaCl2 (60 mOsm/L) and ATP (100 μM) were added.

The test system of assay [9] is plasma membrane cell component enriched with SERCA. Nature of the assay: Plasma membrane cell component enriched with SERCA, response to CaCl2 (Example 7). The note with it: role: substrate, CaCl2 60 mOsm/L, ATP 100 μM, SERCA relocalized.
Description: as §7, §8, §9, §10, §11

Where [10] appears, read: role: substrate, CaCl2 60 mOsm/L, ATP 100 μM, FIG. 1.
The mark [11] stands for this setting: role: substrate, CaCl2 60 mOsm/L, ATP 100 μM, FIG. 3.

Turning to `[Ca+2].[Cl-].[Cl-]` [CaCl2], the “re-swelling process of vesicle” value in assay [1] (role: substrate, 60 mOsm/L, following minutes, CaCl2 with ATP (100 μM), sucrose as control) is given as “a re-swelling process is gradually observed”. Besides, the “deflation of vesicle on contacting” value in assay [1] (role: substrate, CaCl2 60 mOsm/L with ATP (100 μM), or sucrose 60 mOsm without ATP stated, vesicle internal 20 mOsm/L, COS7 ER vesicle) is reported as “the vesicle deflates in a few seconds”. In addition, in assay [1] (setting [10]), the “time at which vesicle is deflated to minimum volume (Vi1) and maximum fluorescence” value is 20 s; the “time at which vesicle re-swells to final volume and fluorescence (Vf and Ff)” value was 90 s. In addition, the “swelling state of vesicle at t=100s” value in assay [1] (role: substrate; CaCl2 60 mOsm/L; ATP 100 μM; FIG. 1 B)) is given as “the vesicle has almost reached its initial state of swelling”. Besides, the “Vf/Vi1 and Vf/Vi versus reference ratio (transporting activity of SERCA)” value in assay [1] (role: substrate, sucrose as reference compound, FIGS. 1 and 2) is “Vf/Vi1>Vf,ref/Vi1,ref, and Vf/Vi>Vf,ref/Vi,ref”. Also, in [2] (setting [11]), the “time at which vesicle is deflated to minimum volume (Vi1) and maximum fluorescence (Fi1)” value came to 20 s; the “time at which vesicle re-swells to final volume and fluorescence (Vf and Ff)” value was 90 s. Besides, the “vesicle volume at t=300s versus initial state” value in [2] (role: substrate; CaCl2 60 mOsm/L; ATP 100 μM; FIG. 3 B)) was “reached a higher volume than the initial state”. The “internalization in the ER extracellular organelle vesicle” value in assay [3] is listed as “internalized in the ER extracellular organelle vesicle”. In assay [3] (cells incubated 1 h with Fluo8-AM), the “Fluo8-AM fluorescence signal (calcium concentration inside vesicle)” value is “Fluorescence signal is rising after addition of CaCl2”. In addition, the “ER vesicle volume 1h after contacting” value in assay [4] was “exhibits the same volume as its initial one”. The “mitochondria vesicle volume 1h after contacting” value in [5] is recorded as “has deflated”. For the same compound, in assay [6], the “ER vesicle volume 5 min after contacting” value was “exhibits a bigger volume as its initial one”. Besides, in assay [7], the “nucleus cell component response 5 min after contacting” value is listed as “has deflated with no re-swelling”. In addition, the “ER vesicle volume 5 min after contacting” value in assay [8] is “exhibits a bigger volume as its initial one”. The “plasma membrane cell component response 5 min after contacting” value in assay [9] is recorded as “has deflated”.
